Assay results from the supplement of paper PMC10307832.

Key:
Assay in all cases: relative viability (nuclei count vs DMSO), 5 days (fraction); higher = more cells survive
[1] = system: NCI-H1355
Summary of the method: (§1)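 Relative viability equals treated-well nuclei counts divided by vehicle-well nuclei counts. Counts came from 4× images of lung cancer cell lines grown in 1536-well plates for 5 days after pin-tool dosing on the day after seeding. Dosing used one drug alone or a fixed anchor-drug dose plus five library-drug doses (not always all listed) in √10 steps, and values are medians of duplicate plates.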

[2] = system: HCC-366
Summary of the method: as §1

[3] = system: NCI-H1666
Summary of the method: as §1

[4] = system: HCC-44
Summary of the method: as §1

[5] = system: NCI-H1734
Summary of the method: as §1

[6] = system: NCI-H2009
Summary of the method: as §1

[7] = system: LK-2
Summary of the method: as §1

[8] = system: NCI-H838
Summary of the method: as §1

[9] = system: IA-LM
Summary of the method: as §1

[10] = system: HCC-78
Summary of the method: as §1

[11] = system: NCI-H520
Summary of the method: as §1

[12] = system: NCI-H358
Summary of the method: as §1

[13] = system: NCI-H1703
Summary of the method: as §1

[14] = system: ABC-1
Summary of the method: as §1

[15] = system: NCI-H727
Summary of the method: as §1

[16] = system: NCI-H2405
Summary of the method: as §1

[17] = system: NCI-H1755
Summary of the method: as §1

[18] = system: UMC-11
Summary of the method: as §1

[19] = system: SW 1573
Summary of the method: as §1

[20] = system: BEN
Summary of the method: as §1

[21] = system: NCI-H2228
Summary of the method: as §1

[22] = system: LOU-NH91
Summary of the method: as §1

[23] = system: NCI-H2347
Summary of the method: as §1

[24] = system: 201T
Summary of the method: as §1

CCCCCCCCCCCC1=C(O)C(=O)C=C(O)C1=O [Embelin] + C[C@]1(O)C[C@@H](c2nc(-c3ccc4ccc(-c5ccccc5)nc4c3)c3c(N)nccn32)C1 [Linsitinib] (partner 1 µM)
relative viability ([1]; first compound 0.08 µM): 0.757
relative viability ([1]; first compound 0.8 µM): 0.813
relative viability ([1]; first compound 2.53 µM): 0.968
relative viability ([1]; first compound 8 µM): 0.724
relative viability ([2]; first compound 0.08 µM): 0.697
relative viability ([2]; first compound 0.8 µM): 0.726
relative viability ([2]; first compound 2.53 µM): 0.846
relative viability ([2]; first compound 8 µM): 0.49
relative viability ([3]; first compound 0.08 µM): 0.898
relative viability ([3]; first compound 0.8 µM): 0.995
relative viability ([3]; first compound 2.53 µM): 0.83
relative viability ([3]; first compound 8 µM): 0.97
relative viability ([4]; first compound 0.08 µM): 0.739
relative viability ([4]; first compound 0.8 µM): 0.654
relative viability ([4]; first compound 2.53 µM): 0.742
relative viability ([4]; first compound 8 µM): 0.642
relative viability ([5]; first compound 0.08 µM): 0.832
relative viability ([5]; first compound 0.8 µM): 1.05
relative viability ([5]; first compound 2.53 µM): 0.927
relative viability ([5]; first compound 8 µM): 0.876
relative viability ([6]; first compound 0.08 µM): 1.24
relative viability ([6]; first compound 0.8 µM): 1.3
relative viability ([6]; first compound 2.53 µM): 1.21
relative viability ([6]; first compound 8 µM): 1.12
relative viability ([7]; first compound 0.08 µM): 0.685
relative viability ([7]; first compound 0.8 µM): 0.525
relative viability ([7]; first compound 2.53 µM): 0.805
relative viability ([7]; first compound 8 µM): 0.547
relative viability ([8]; first compound 0.08 µM): 1.06
relative viability ([8]; first compound 0.8 µM): 1.13
relative viability ([8]; first compound 2.53 µM): 1.03
relative viability ([8]; first compound 8 µM): 1.07
relative viability ([9]; first compound 0.08 µM): 0.425
relative viability ([9]; first compound 0.8 µM): 0.799
relative viability ([9]; first compound 2.53 µM): 0.536
relative viability ([9]; first compound 8 µM): 0.241
relative viability ([10]; first compound 0.08 µM): 0.516
relative viability ([10]; first compound 0.8 µM): 0.623
relative viability ([10]; first compound 2.53 µM): 0.52
relative viability ([10]; first compound 8 µM): 0.413
relative viability ([11]; first compound 0.08 µM): 1
relative viability ([11]; first compound 0.8 µM): 0.849
relative viability ([11]; first compound 2.53 µM): 0.869
relative viability ([11]; first compound 8 µM): 1.03
relative viability ([12]; first compound 0.08 µM): 0.691
relative viability ([12]; first compound 0.8 µM): 0.908
relative viability ([12]; first compound 2.53 µM): 0.92
relative viability ([12]; first compound 8 µM): 0.842
relative viability ([13]; first compound 0.08 µM): 0.983
relative viability ([13]; first compound 2.53 µM): 0.634
relative viability ([13]; first compound 8 µM): 0.599
relative viability ([14]; first compound 0.08 µM): 0.863
relative viability ([14]; first compound 0.8 µM): 0.786
relative viability ([14]; first compound 2.53 µM): 0.772
relative viability ([14]; first compound 8 µM): 0.825
relative viability ([15]; first compound 0.08 µM): 0.282
relative viability ([15]; first compound 0.8 µM): 0.192
relative viability ([15]; first compound 2.53 µM): 0.307
relative viability ([15]; first compound 8 µM): 0.268
relative viability ([16]; first compound 0.08 µM): 0.978
relative viability ([16]; first compound 0.8 µM): 1.16
relative viability ([16]; first compound 2.53 µM): 0.973
relative viability ([16]; first compound 8 µM): 0.92
relative viability ([17]; first compound 0.08 µM): 1.03
relative viability ([17]; first compound 0.8 µM): 1.06
relative viability ([17]; first compound 2.53 µM): 1.07
relative viability ([17]; first compound 8 µM): 0.98
relative viability ([18]; first compound 0.08 µM): 1.03
relative viability ([18]; first compound 0.8 µM): 1.08
relative viability ([18]; first compound 2.53 µM): 1.11
relative viability ([18]; first compound 8 µM): 0.984
relative viability ([19]; first compound 0.08 µM): 0.842
relative viability ([19]; first compound 0.8 µM): 0.924
relative viability ([19]; first compound 2.53 µM): 0.75
relative viability ([19]; first compound 8 µM): 0.832
relative viability ([20]; first compound 0.08 µM): 0.976
relative viability ([20]; first compound 0.8 µM): 1.25
relative viability ([20]; first compound 2.53 µM): 1.09
relative viability ([20]; first compound 8 µM): 0.898
relative viability ([21]; first compound 0.08 µM): 0.636
relative viability ([21]; first compound 0.8 µM): 0.781
relative viability ([21]; first compound 2.53 µM): 1.09
relative viability ([21]; first compound 8 µM): 0.59
relative viability ([22]; first compound 0.08 µM): 1.02
relative viability ([22]; first compound 0.8 µM): 1.23
relative viability ([22]; first compound 2.53 µM): 1.03
relative viability ([22]; first compound 8 µM): 0.877
relative viability ([23]; first compound 0.08 µM): 0.968
relative viability ([23]; first compound 0.8 µM): 1.03
relative viability ([23]; first compound 2.53 µM): 1.09
relative viability ([23]; first compound 8 µM): 0.958
relative viability ([24]; first compound 0.08 µM): 1.06
relative viability ([24]; first compound 0.8 µM): 1.1
relative viability ([24]; first compound 2.53 µM): 1.09
relative viability ([24]; first compound 8 µM): 1.01

CCCCCCCCCCCC1=C(O)C(=O)C=C(O)C1=O [Embelin] + Cc1nc(NC(=O)N2CCC[C@H]2C(N)=O)sc1-c1ccnc(C(C)(C)C(F)(F)F)c1 [Alpelisib] (partner 2 µM)
relative viability ([1]; first compound 0.08 µM): 0.847
relative viability ([1]; first compound 0.8 µM): 0.897
relative viability ([1]; first compound 2.53 µM): 0.916
relative viability ([1]; first compound 8 µM): 0.771
relative viability ([2]; first compound 0.08 µM): 0.411
relative viability ([2]; first compound 0.8 µM): 0.418
relative viability ([2]; first compound 2.53 µM): 0.412
relative viability ([2]; first compound 8 µM): 0.427
relative viability ([3]; first compound 0.08 µM): 1.01
relative viability ([3]; first compound 0.8 µM): 1.09
relative viability ([3]; first compound 2.53 µM): 1.05
relative viability ([3]; first compound 8 µM): 0.955
relative viability ([4]; first compound 0.08 µM): 0.781
relative viability ([4]; first compound 0.8 µM): 0.767
relative viability ([4]; first compound 2.53 µM): 0.895
relative viability ([4]; first compound 8 µM): 1
relative viability ([5]; first compound 0.08 µM): 0.758
relative viability ([5]; first compound 0.8 µM): 0.726
relative viability ([5]; first compound 2.53 µM): 0.745
relative viability ([5]; first compound 8 µM): 0.741
relative viability ([6]; first compound 0.08 µM): 1.26
relative viability ([6]; first compound 0.8 µM): 1.27
relative viability ([6]; first compound 2.53 µM): 1.18
relative viability ([6]; first compound 8 µM): 1.16
relative viability ([7]; first compound 0.08 µM): 1.09
relative viability ([7]; first compound 0.8 µM): 1.5
relative viability ([7]; first compound 2.53 µM): 1.09
relative viability ([7]; first compound 8 µM): 0.99
relative viability ([8]; first compound 0.08 µM): 1.01
relative viability ([8]; first compound 0.8 µM): 1
relative viability ([8]; first compound 2.53 µM): 1.12
relative viability ([8]; first compound 8 µM): 1.11
relative viability ([9]; first compound 0.08 µM): 0.778
relative viability ([9]; first compound 0.8 µM): 0.753
relative viability ([9]; first compound 2.53 µM): 0.839
relative viability ([9]; first compound 8 µM): 0.191
relative viability ([10]; first compound 0.08 µM): 0.329
relative viability ([10]; first compound 0.8 µM): 0.392
relative viability ([10]; first compound 2.53 µM): 0.388
relative viability ([10]; first compound 8 µM): 0.307
relative viability ([11]; first compound 0.08 µM): 1.05
relative viability ([11]; first compound 0.8 µM): 1.06
relative viability ([11]; first compound 2.53 µM): 0.896
relative viability ([11]; first compound 8 µM): 0.901
relative viability ([12]; first compound 0.08 µM): 0.852
relative viability ([12]; first compound 0.8 µM): 0.958
relative viability ([12]; first compound 2.53 µM): 1.09
relative viability ([12]; first compound 8 µM): 0.918
relative viability ([13]; first compound 0.08 µM): 0.428
relative viability ([13]; first compound 0.8 µM): 0.436
relative viability ([13]; first compound 2.53 µM): 0.309
relative viability ([13]; first compound 8 µM): 0.238
relative viability ([14]; first compound 0.08 µM): 1.24
relative viability ([14]; first compound 0.8 µM): 1.1
relative viability ([14]; first compound 2.53 µM): 0.996
relative viability ([14]; first compound 8 µM): 1.18
relative viability ([15]; first compound 0.08 µM): 0.629
relative viability ([15]; first compound 0.8 µM): 0.57
relative viability ([15]; first compound 2.53 µM): 0.578
relative viability ([15]; first compound 8 µM): 0.511
relative viability ([16]; first compound 0.08 µM): 0.853
relative viability ([16]; first compound 0.8 µM): 1.11
relative viability ([16]; first compound 2.53 µM): 0.774
relative viability ([16]; first compound 8 µM): 0.793
relative viability ([17]; first compound 0.08 µM): 0.906
relative viability ([17]; first compound 0.8 µM): 0.966
relative viability ([17]; first compound 2.53 µM): 0.994
relative viability ([17]; first compound 8 µM): 0.934
relative viability ([18]; first compound 0.08 µM): 0.969
relative viability ([18]; first compound 0.8 µM): 1.07
relative viability ([18]; first compound 2.53 µM): 1.24
relative viability ([18]; first compound 8 µM): 1.2
relative viability ([19]; first compound 0.08 µM): 0.815
relative viability ([19]; first compound 0.8 µM): 0.966
relative viability ([19]; first compound 2.53 µM): 0.786
relative viability ([19]; first compound 8 µM): 0.804
relative viability ([20]; first compound 0.08 µM): 1.09
relative viability ([20]; first compound 0.8 µM): 1.31
relative viability ([20]; first compound 2.53 µM): 1.3
relative viability ([20]; first compound 8 µM): 1.01
relative viability ([21]; first compound 0.08 µM): 0.705
relative viability ([21]; first compound 0.8 µM): 0.781
relative viability ([21]; first compound 2.53 µM): 0.793
relative viability ([21]; first compound 8 µM): 0.729
relative viability ([22]; first compound 0.08 µM): 0.771
relative viability ([22]; first compound 0.8 µM): 0.904
relative viability ([22]; first compound 2.53 µM): 0.862
relative viability ([22]; first compound 8 µM): 0.709
relative viability ([23]; first compound 0.08 µM): 1.05
relative viability ([23]; first compound 0.8 µM): 1.16
relative viability ([23]; first compound 2.53 µM): 1.11
relative viability ([23]; first compound 8 µM): 1.16
relative viability ([24]; first compound 0.08 µM): 0.979
relative viability ([24]; first compound 0.8 µM): 1.03
relative viability ([24]; first compound 2.53 µM): 0.981
relative viability ([24]; first compound 8 µM): 0.971
